{"source": "patent US20050129762A1", "about": "“Extended release pharmaceutical dosage form” (Wyeth, priority 2003, published 2005)", "origin": "cited, not measured here", "conditions": "plural daily dosing regimen, immediate release tablets", "note": "Where a name gives a salt, the structure may show the parent alone."}
{"compound": "COc1ccc(C(CN(C)C)C2(O)CCCCC2)cc1", "note": "(centres unmarked) [venlafaxine hydrochloride, 1-[2-(dimethylamino)-1-(4-methoxyphenyl)ethyl]-cyclohexanol]", "values": [{"measurement": "Vomiting, share of patients", "value": "about seventeen"}, {"measurement": "nausea, share of patients under treatment", "value": "about forty five"}]}
